Laboratory results taken from PubChem BioAssay (NCI).
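A five-concentration, 48-hour dose response in 96-well plates underlies each endpoint, interpolated linearly between surrounding concentrations. At the GI50, growth is halved. Definition used: TGI = concentration required for complete inhibition of growth.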

How the values were obtained:
Assay in all cases: NCI tumour cell line growth inhibition, 48 h
[1] = system: SNB-19 CNS
[2] = system: K-562 leukemia
[3] = system: XF 498 CNS
[4] = system: KM12 colon
[5] = system: SF-295 CNS
[6] = system: LOX IMVI melanoma
[7] = system: SK-MEL-5 melanoma
[8] = system: UO-31 renal
[9] = system: SN12C renal
[10] = system: DMS 273 small cell lung
[11] = system: OVCAR-5 ovarian
[12] = system: SNB-78 CNS
[13] = system: A498 renal
[14] = system: UACC-62 melanoma
[15] = system: OVCAR-3 ovarian
[16] = system: HOP-62 NSCLC
[17] = system: HL-60(TB) leukemia
[18] = system: NCI-H460 lung
[19] = system: SW-620 colon
[20] = system: MALME-3M melanoma
[21] = system: NCI-H522 lung
[22] = system: SNB-75 CNS
[23] = system: HCT-15 colon
[24] = system: IGROV1 ovarian
[25] = system: OVCAR-4 ovarian
[26] = system: SF-539 CNS
[27] = system: A549 NSCLC
[28] = system: SK-MEL-2 melanoma
[29] = system: HOP-18 NSCLC
[30] = system: NCI-H23 lung
[31] = system: DLD-1 colon
[32] = system: SK-MEL-28 melanoma
[33] = system: HT29 colon
[34] = system: MOLT-4 leukemia
[35] = system: NCI-H226 lung
[36] = system: SR leukemia
[37] = system: CCRF-CEM leukemia
[38] = system: HOP-92 NSCLC
[39] = system: SF-268 CNS
[40] = system: EKVX NSCLC
[41] = system: KM20L2 colon
[42] = system: M19-MEL melanoma
[43] = system: HCT-116 colon
[44] = system: LXFL 529 NSCLC
[45] = system: HCC-2998 colon
[46] = system: UACC-257 melanoma
[47] = system: M14 melanoma
[48] = system: OVCAR-8 ovarian
[49] = system: SK-OV-3 ovarian
[50] = system: ACHN renal
[51] = system: CAKI-1 renal
[52] = system: TK-10 renal
[53] = system: 786-0 renal
[54] = system: U251 CNS
[55] = system: DMS 114 small cell lung
[56] = system: COLO 205 colon
[57] = system: RXF 393 renal
[58] = system: RPMI-8226 leukemia

CCC[CH2][Sn]([CH2]CCC)([O]C(=O)c1cc(F)cc(F)c1)[O][Sn]([CH2]CCC)([CH2]CCC)[O]C(=O)c1cc(F)cc(F)c1
GI50 [1]: 1.52 µM | TGI [1]: 2.86 µM | GI50 [2]: 0.256 µM | TGI [2]: 1.12 µM | GI50 [3]: 1.4 µM | TGI [3]: 2.71 µM | GI50 [4]: 3.58 µM | TGI [4]: 12.4 µM | GI50 [5]: 1.67 µM | TGI [5]: 3.06 µM | GI50 [6]: 1.05 µM | TGI [6]: 2.35 µM | GI50 [7]: 1.46 µM | TGI [7]: 2.77 µM | GI50 [8]: 1.66 µM | TGI [8]: 3.02 µM | GI50 [9]: 1.41 µM | TGI [9]: 2.76 µM | GI50 [10]: 1.23 µM | TGI [10]: 2.47 µM | GI50 [11]: 1.92 µM | TGI [11]: 3.43 µM | GI50 [12]: 0.584 µM | TGI [12]: 2.29 µM | GI50 [13]: 1.43 µM | TGI [13]: 2.83 µM | GI50 [14]: 1.4 µM | TGI [14]: 2.7 µM | GI50 [15]: 1.52 µM | TGI [15]: 2.86 µM | GI50 [16]: 5 µM | TGI [16]: 14.3 µM | GI50 [17]: 0.374 µM | TGI [17]: 2.23 µM | GI50 [18]: 2.67 µM | TGI [18]: 6.74 µM | GI50 [19]: 0.626 µM | TGI [19]: 1.92 µM | GI50 [20]: 0.889 µM | TGI [20]: 2.18 µM | GI50 [21]: 0.0538 µM | TGI [21]: 0.185 µM | GI50 [22]: 1.26 µM | TGI [22]: 2.71 µM | GI50 [23]: 1.38 µM | TGI [23]: 2.79 µM | GI50 [24]: 1.64 µM | TGI [24]: 3.31 µM | GI50 [25]: 2.04 µM | TGI [25]: 3.51 µM | GI50 [26]: 1.34 µM | TGI [26]: 2.8 µM | GI50 [27]: 9.78 µM | TGI [27]: 21.8 µM | GI50 [28]: 1.02 µM | TGI [28]: 2.2 µM | GI50 [29]: 1.96 µM | TGI [29]: 3.38 µM | GI50 [30]: 0.606 µM | TGI [30]: 1.88 µM | GI50 [31]: 1.15 µM | TGI [31]: 2.41 µM | GI50 [32]: 1.14 µM | TGI [32]: 2.38 µM | GI50 [33]: 1.91 µM | TGI [33]: 4.09 µM | GI50 [34]: 0.318 µM | TGI [34]: 2.15 µM | GI50 [35]: 1.45 µM | TGI [35]: 2.81 µM | GI50 [36]: 0.372 µM | TGI [36]: 4.32 µM | GI50 [37]: 0.101 µM | TGI [37]: 0.886 µM | GI50 [38]: 1.25 µM | TGI [38]: 2.52 µM | GI50 [39]: 0.91 µM | TGI [39]: 2.19 µM | GI50 [40]: 1.31 µM | TGI [40]: 2.59 µM | GI50 [41]: 3.1 µM | TGI [41]: 10.6 µM | GI50 [42]: 0.519 µM | TGI [42]: 2 µM | GI50 [43]: 1.35 µM | TGI [43]: 2.63 µM | GI50 [44]: 0.152 µM | TGI [44]: 0.612 µM | GI50 [45]: 1.71 µM | TGI [45]: 3.32 µM | GI50 [46]: 1.11 µM | TGI [46]: 2.34 µM | GI50 [47]: 1.48 µM | TGI [47]: 2.81 µM | GI50 [48]: 1.28 µM | TGI [48]: 2.54 µM | GI50 [49]: 3.04 µM | TGI [49]: 8.38 µM | GI50 [50]: 1.51 µM | TGI [50]: 2.83 µM | GI50 [51]: 0.663 µM | TGI [51]: 1.95 µM | GI50 [52]: 1.41 µM | TGI [52]: 2.72 µM | GI50 [53]: 1.27 µM | TGI [53]: 2.53 µM | GI50 [54]: 1.08 µM | TGI [54]: 2.28 µM | GI50 [55]: 0.379 µM | TGI [55]: 1.53 µM | GI50 [56]: 1.05 µM | TGI [56]: 2.34 µM | GI50 [57]: 0.423 µM | TGI [57]: 1.56 µM

CCCCCCCCCOC(=S)NCCCCC
TGI [1]: > 100 µM | TGI [2]: 84.1 µM | TGI [5]: > 100 µM | TGI [6]: 29.4 µM | TGI [7]: 40.7 µM | TGI [8]: 51.1 µM | TGI [9]: 74 µM | TGI [10]: 58.3 µM | TGI [12]: > 100 µM | TGI [13]: 59 µM | TGI [14]: 89 µM | TGI [16]: 80.9 µM | TGI [17]: 39.5 µM | TGI [18]: 64 µM | TGI [19]: > 100 µM | TGI [20]: 63.2 µM | TGI [21]: 46.6 µM | TGI [22]: > 100 µM | TGI [23]: 53.9 µM | TGI [24]: > 100 µM | TGI [25]: > 100 µM | TGI [26]: 41.3 µM | TGI [27]: 81.7 µM | TGI [29]: > 100 µM | TGI [30]: 68.3 µM | TGI [31]: > 100 µM | TGI [32]: > 100 µM | TGI [33]: 63.4 µM | TGI [58]: 40 µM | TGI [34]: 42.6 µM | TGI [36]: 50.6 µM | TGI [37]: 63.4 µM | TGI [38]: 53.9 µM | TGI [39]: > 100 µM | TGI [40]: 86.8 µM | TGI [41]: 59.3 µM | TGI [42]: > 100 µM | TGI [43]: 44.8 µM | TGI [44]: > 100 µM | TGI [45]: > 100 µM | TGI [46]: 62.1 µM | TGI [47]: 87.9 µM | TGI [48]: > 100 µM | TGI [49]: 87.7 µM | TGI [50]: 69.9 µM | TGI [51]: 73.7 µM | TGI [52]: 56.4 µM | TGI [53]: > 100 µM | TGI [54]: 48.6 µM | TGI [55]: 47.4 µM | TGI [57]: 53.6 µM
